# Data published in ChEMBL document CHEMBL1121497, “Studies on cardiovascular agents. 6. Synthesis and coronary vasodilating and antihypertensive activities of 1,2,4-triazolo[1,5-a]pyrimidines fused to heterocyclic systems” (1980).
# Experiments:
# Assay type in all cases: functional
# [1] = species: Cavia porcellus; assay: Integrated vasodilating potency (IVP) (the product of compound-induced maximum percent decrease in the perfusion pressure and the duration of the effect in minutes at 100 ug (ia))
# [2] = system: Rattus norvegicus; assay: Hypotensive index (HI) measured as the area under the time-hypotensive response curve for 6-h period at 30 mg/kg, po
# [3] = species: Cavia porcellus; assay: Integrated vasodilating potency (the product of compound-induced maximum percent decrease in the perfusion pressure and the duration of the effect in minutes at 100 ug (ia); Coronary vasoconstricting action)
Structure (SMILES),IVP [1],HI [2],IVP [3]
Cc1nc2ncnn2c2c1CCN2CCc1ccccc1,100,5,
COc1ccc(Cn2ccc3c(C)nc4ncnn4c32)cc1,55,0,
Cc1nc2ncnn2c2c1CCN2,6,55,
Cc1nc2ncnn2c2c1CCN2CCCN(C)C,0,10,
Cc1nc2ncnn2c2c1CCN2C(C)(C)CO,38,75,
CCCCN1CCc2c(C)nc3ncnn3c21,30,145,
COc1ccc(CN2CCc3c(C)nc4ncnn4c32)cc1,55,13,
COc1ccc(-c2nc3nc(C)c4c(n3n2)N(CCCN2CCCC2)CC4)cc1,0,0,
Cc1nc2ncnn2c2c1CC(C)N2Cc1ccccc1F (stereo unspecified),64,5,
COc1cc(C(=O)OCCCN2CCc3c(C)nc4ncnn4c32)cc(OC)c1OC,26,10,
Cc1nc2ncnn2c2c1NCCN2C,0,5,
Cc1nc2ncnn2c2c1CCN2C,50,10,
Cc1nc2ncnn2c2c1CCN2Cc1ccccc1Cl,86,30,
COc1cc(C(=O)OCCN2CCc3c(C)nc4ncnn4c32)cc(OC)c1OC,21,0,
CCCCN(CCCC)CCCN1CCc2c(C)nc3ncnn3c21,0,40,
Cc1nc2ncnn2c2c1CCN2CCOC(=O)c1cccnc1,7,30,
Cc1nc2ncnn2c2c1CCN2C(C)c1ccccc1 (stereo unspecified),137,5,
Cc1nc2ncnn2c2c1CCN2C(C)C,24,0,
COc1ccc(CCN2CCc3c(C)nc4ncnn4c32)cc1OC,11,15,
CCC1Cc2c(C)nc3ncnn3c2N1C(C)C (stereo unspecified),0,20,
CNC1(C)C2CCC(C2)C1(C)C (stereo unspecified) [MECAMYLAMINE],,110,
Cc1nc2ncnn2c2c1N(C)CCN2C,45,25,
Cc1nc2ncnn2c2c1CCN2CCC(C)C,118,5,
Cc1nc2ncnn2c2c1ccn2CC(C)C,38,15,
Cc1nc2nc(-c3ccccc3)nn2c2c1CCN2C(C)C,,0,Coronary vasoconstricting action
COc1ccc(-c2nc3nc(C)c4c(n3n2)N(C)CC4)cc1,0,0,

Structure (SMILES),IVP [1],HI [2],IVP [3]
COc1ccc(CN2c3c(c(C)nc4ncnn34)CC2C)cc1 (stereo unspecified),82,11,
Cc1nc2ncnn2c2c1CCN2CC(C)O (stereo unspecified),,5,Coronary vasoconstricting action
CCC1Cc2c(C)nc3ncnn3c2N1Cc1ccccc1F (stereo unspecified),67,0,
Cc1nc2ncnn2c2c1CCN2Cc1ccccc1F,351,5,
Cc1nc2ncnn2c2c1CCN2C1CCCCCC1,440,45,
N=C(N)NCCN1CCCCCCC1.N=C(N)NCCN1CCCCCCC1.O=S(=O)(O)O [GUANETHIDINE SULFATE],,195,
Cc1nc2nc(-c3ccccc3)nn2c2c1CCN2CCCN1CCCC1,105,44,
Cc1ccc(CN2CCc3c(C)nc4ncnn4c32)cc1,119,15,
Cc1nc2ncnn2c2c1CC(C)N2Cc1ccccc1Cl (stereo unspecified),80,8,
Cc1nc2ncnn2c2c1ccn2Cc1ccccc1Cl,22,12,
Cc1nc2ncnn2c2c1CCN2CCCN1CCCC1,0,75,
Cc1nc2ncnn2c2c1CCN2CC(O)CO (stereo unspecified),,15,Coronary vasoconstricting action
Cc1nc2ncnn2c2c1CCN2C(C)CC(C)C (stereo unspecified),86,5,
Cc1nc2ncnn2c2c1CCN2CC(C)(C)C,760,40,
Cc1nc2ncnn2c2c1CCN2C(C)(C)CC(C)(C)C,32,,
CCCCN1CCc2c(C)nc3nc(-c4ccccc4)nn3c21,,10,Coronary vasoconstricting action
CCCCN1c2c(c(C)nc3ncnn23)CC1C (stereo unspecified),50,45,
Cc1nc2nc(-c3ccccc3)nn2c2c1CCN2C(C)(C)C,,0,Coronary vasoconstricting action
Cc1nc2ncnn2c2c1CCN2CCCN1CCOCC1,3,40,
Cc1nc2ncnn2c2c1CCN2C1CCCCCCC1,,15,Coronary vasoconstricting action
Cc1nc2ncnn2c2c1CCCO2,0,,
C=CCN1CCc2c(C)nc3ncnn3c21,56,70,
Cc1nc2ncnn2c2c1CC(C)N2C(C)(C)C (stereo unspecified),47,,
CCCCN1c2c(c(C)nc3ncnn23)CC1CC (stereo unspecified),120,10,
CCC1Cc2c(C)nc3ncnn3c2N1C(C)(C)C (stereo unspecified),227,12,
Cc1nc2ncnn2c2c1CCN2CCC(=O)c1ccccc1,32,17,

Structure (SMILES),IVP [1],HI [2],IVP [3]
Cc1nc2ncnn2c2c1CCN2C(C)COc1ccccc1 (stereo unspecified),63,65,
Cc1nc2ncnn2c2c1CCN2c1c(Cl)cccc1Cl,7,0,
Cc1nc2nc(C)c3c(n2n1)N(C(C)(C)C)CC3,18,35,
Cc1nc2ncnn2c2c1CCN2c1ccccc1,72,15,
Cc1nc2nc(C)c3c(n2n1)N(CCCN1CCCC1)CC3,0,10,
Cc1nc2ncnn2c2c1CCN2CCOCCO,22,10,
Cc1nc2ncnn2c2c1CCN2CCS,285,10,
Cc1nc2ncnn2c2c1CCN2c1ccc(S(N)(=O)=O)cc1,14,0,
Cc1nc2ncnn2c2c1CCN2C(C)C(O)c1ccccc1 (stereo unspecified),8,0,
Cc1nc2nc(-c3ccccc3)nn2c2c1CCN2Cc1ccccc1F,,8,Coronary vasoconstricting action
Cc1nc2ncnn2c2c1C(C)CN2C(C)(C)C (stereo unspecified),333,20,
COc1ccc(-c2nc3nc(C)c4c(n3n2)N(C(C)C)CC4)cc1,,0,Coronary vasoconstricting action
Clc1ccccc1CN1CCc2c(C3CC3)nc3ncnn3c21,5,,
c1ccc(CCN2CCc3c(C4CC4)nc4ncnn4c32)cc1,180,12,
Cc1cn(C(C)(C)C)c2c1c(C)nc1ncnn12,330,20,
COc1ccc(CN2CCc3c(C)nc4ncnn4c32)cc1OC,174,55,
Cc1nc2nc(-c3ccc(Cl)cc3)nn2c2c1CCN2C(C)C,,0,Coronary vasoconstricting action
CCCCCCN1CCc2c(C)nc3ncnn3c21,14,10,
Cc1nc2nc(C)c3c(n2n1)N(Cc1ccccc1Cl)CC3,15,18,
COc1cc(-c2nc3nc(C)c4c(n3n2)N(C(C)(C)C)CC4)cc(OC)c1OC,222,50,
CC(C)N1CCc2c(C3CC3)nc3ncnn3c21,45,5,
Cc1nc2ncnn2c2c1CCN2Cc1ccccc1,46,170,
Cc1nc2ncnn2c2c1CCN2C1CCCCC1,65,12,
Cc1nc2ncnn2c2c1CCN2Cc1ccc(Cl)cc1,250,145,
Cc1nc2ncnn2c2c1CCN2CCCOC(=O)c1cccnc1,24,30,
Cc1nc2ncnn2c2c1CC(C)N2C(C)C (stereo unspecified),10,0,

Structure (SMILES),IVP [1],HI [2],IVP [3]
Cc1nc2ncnn2c2c1CCN2CCCN(CCO)CCO,0,45,
CCCN1CCc2c(C)nc3ncnn3c21,193,15,
Cc1nc2ncnn2c2c1CCN2CCN1CCN(C)CC1,20,10,
Cc1nc2ncnn2c2c1CCN2CCCO,12,105,
CCC(C)N1CCc2c(C)nc3ncnn3c21 (stereo unspecified),5,100,
CCN(CC)CCN1CCc2c(C)nc3ncnn3c21,1,0,
Cc1nc2ncnn2c2c1CCN2CCO,12,0,
Cc1nc2ncnn2c2c1CC[N+]2(C)C(C)(C)C.[I-] (stereo unspecified),9,0,
Cc1nc2ncnn2c2c1CCN2CCN1CCCCC1,2,10,
CCCCCCCCCCN1CCc2c(C)nc3ncnn3c21,,7,
Cc1nc2ncnn2c2c1ccn2C(C)(C)C,246,160,
Cc1nc2ncnn2c2c1CCS2,0,10,
CCCCCCCCCCCCN1CCc2c(C)nc3ncnn3c21,,10,
CCCCCN1CCc2c(C)nc3ncnn3c21,15,6,
Cc1nc2ncnn2c2c1CCN2CCN1CCCC1,2,0,
CC(C)(C)N1CCc2c(C3CC3)nc3ncnn3c21,125,20,
CC(C)(C)CN1CCc2c(C3CC3)nc3ncnn3c21,50,20,
Cc1nc2ncnn2c2c1CCN2CCN1CCOCC1,16,5,
Cc1nc2ncnn2c2c1CCN2CC(C)C,107,60,
CCN1CCc2c(C)nc3ncnn3c21,12,10,
Cc1nc2ncnn2c2[nH]ccc12,45,60,
Cc1nc2ncnn2c2c1CCN2CCCN1CCCCC1,5,45,
COc1cc(CN2CCc3c(C)nc4ncnn4c32)cc(OC)c1OC,109,15,
CCCN1CCN(CCCN2CCc3c(C)nc4ncnn4c32)CC1,3,0,
